Tests used:
Assay in all cases: KinaseProfiler kinase assay
Format in all cases: biochemical
[1] = molecular target: KDR(h) (Homo sapiens, UniProt P35968)
[2] = molecular target: Abl(h) (Homo sapiens, UniProt P00519)
[3] = molecular target: cSRC(h) (Homo sapiens, UniProt P12931)
Method: (§1) This example tests the inhibitory properties of representative compounds of the invention in c-Src kinase, Aurora-A kinase, Flt3 kinase, Ret kinase and TrkA Kinase assays (see, Daniele Fancelli et al, J. Med. Chem., 2006, 49 (24), pp 7247-7251). The KinaseProfiler™ Service Assay Protocols (Millipore) was used to test the kinase inhibiting activity of novel compounds from this invention. To do this, the buffer composition was as: 20 mM MOPS, 1 mM EDTA, 0.01% Brij-35, 5% Glycerol, 0.1% β-mercaptoethanol, 1 mg/mL BSA. Test compounds were initially dissolved in DMSO at the desired concentration, then serially diluted to the kinase assay buffer. In a final reaction volume of 25 μL, Aurora-A(h) (5-10 mU) is incubated with 8 mM MOPS pH 7.0, 0.2 mM EDTA, 200 μM LRRASLG (Kemptide), 10 mM MgAcetate and [γ^33P-ATP]. The reaction was initiated by the addition of the MgATP mix. After incubation for 40 minute at room temperature, the reaction was stopped by addition of 5 μL of a 3% phosphoric acid solution. 10 μL of the reaction was then spotted onto a P30 filtermat and washed three times for 5 minutes in 50 mM phosphoric acid and once in methanol prior to drying and scintillation counting. Wells containing substrate but no kinase and wells containing a phosphopeptide control were used to set 0% and 100% phosphorylation value, respectively.
(§2) The Kinase Hotspot℠ kinase assay was also used to test the compounds for IC50 or % inhibitions (Reaction Biology Corp.). Inhibitory IC50 values were determined by titration of compound at the optimal kinase concentration (Kinase EC50).

[4] = molecular target: T1, Flt3(h) (Homo sapiens, UniProt P36888)
T1 sequence (P36888 27-993): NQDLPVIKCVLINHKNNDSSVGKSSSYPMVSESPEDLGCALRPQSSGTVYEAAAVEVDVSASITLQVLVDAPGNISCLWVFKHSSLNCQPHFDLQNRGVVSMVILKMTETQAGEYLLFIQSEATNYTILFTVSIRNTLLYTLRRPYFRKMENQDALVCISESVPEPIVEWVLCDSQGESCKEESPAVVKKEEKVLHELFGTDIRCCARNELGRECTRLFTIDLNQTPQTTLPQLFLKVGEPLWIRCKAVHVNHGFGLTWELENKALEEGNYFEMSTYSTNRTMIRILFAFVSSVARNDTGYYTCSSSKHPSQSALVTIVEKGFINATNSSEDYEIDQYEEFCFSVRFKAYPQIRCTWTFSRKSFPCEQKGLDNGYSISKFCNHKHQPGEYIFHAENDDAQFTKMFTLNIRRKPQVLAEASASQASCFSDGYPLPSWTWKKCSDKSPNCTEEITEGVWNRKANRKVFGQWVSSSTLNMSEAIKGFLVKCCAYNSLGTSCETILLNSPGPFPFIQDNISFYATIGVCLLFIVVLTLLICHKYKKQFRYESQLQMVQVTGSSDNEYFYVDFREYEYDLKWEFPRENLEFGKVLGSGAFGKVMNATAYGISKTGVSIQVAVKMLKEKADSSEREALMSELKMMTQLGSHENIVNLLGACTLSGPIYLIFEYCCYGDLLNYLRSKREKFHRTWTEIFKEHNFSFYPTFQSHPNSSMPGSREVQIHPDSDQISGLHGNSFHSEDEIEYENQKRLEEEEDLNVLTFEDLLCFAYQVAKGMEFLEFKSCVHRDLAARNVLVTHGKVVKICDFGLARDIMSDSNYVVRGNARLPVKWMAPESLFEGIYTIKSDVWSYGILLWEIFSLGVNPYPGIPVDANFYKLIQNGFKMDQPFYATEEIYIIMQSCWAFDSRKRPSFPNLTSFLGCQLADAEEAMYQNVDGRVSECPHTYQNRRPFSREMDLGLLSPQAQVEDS
Method: as §1, §2

[5] = molecular target: Ret(h) (Homo sapiens, UniProt P07949)
Sequence of Ret(h) (P07949 29-1114): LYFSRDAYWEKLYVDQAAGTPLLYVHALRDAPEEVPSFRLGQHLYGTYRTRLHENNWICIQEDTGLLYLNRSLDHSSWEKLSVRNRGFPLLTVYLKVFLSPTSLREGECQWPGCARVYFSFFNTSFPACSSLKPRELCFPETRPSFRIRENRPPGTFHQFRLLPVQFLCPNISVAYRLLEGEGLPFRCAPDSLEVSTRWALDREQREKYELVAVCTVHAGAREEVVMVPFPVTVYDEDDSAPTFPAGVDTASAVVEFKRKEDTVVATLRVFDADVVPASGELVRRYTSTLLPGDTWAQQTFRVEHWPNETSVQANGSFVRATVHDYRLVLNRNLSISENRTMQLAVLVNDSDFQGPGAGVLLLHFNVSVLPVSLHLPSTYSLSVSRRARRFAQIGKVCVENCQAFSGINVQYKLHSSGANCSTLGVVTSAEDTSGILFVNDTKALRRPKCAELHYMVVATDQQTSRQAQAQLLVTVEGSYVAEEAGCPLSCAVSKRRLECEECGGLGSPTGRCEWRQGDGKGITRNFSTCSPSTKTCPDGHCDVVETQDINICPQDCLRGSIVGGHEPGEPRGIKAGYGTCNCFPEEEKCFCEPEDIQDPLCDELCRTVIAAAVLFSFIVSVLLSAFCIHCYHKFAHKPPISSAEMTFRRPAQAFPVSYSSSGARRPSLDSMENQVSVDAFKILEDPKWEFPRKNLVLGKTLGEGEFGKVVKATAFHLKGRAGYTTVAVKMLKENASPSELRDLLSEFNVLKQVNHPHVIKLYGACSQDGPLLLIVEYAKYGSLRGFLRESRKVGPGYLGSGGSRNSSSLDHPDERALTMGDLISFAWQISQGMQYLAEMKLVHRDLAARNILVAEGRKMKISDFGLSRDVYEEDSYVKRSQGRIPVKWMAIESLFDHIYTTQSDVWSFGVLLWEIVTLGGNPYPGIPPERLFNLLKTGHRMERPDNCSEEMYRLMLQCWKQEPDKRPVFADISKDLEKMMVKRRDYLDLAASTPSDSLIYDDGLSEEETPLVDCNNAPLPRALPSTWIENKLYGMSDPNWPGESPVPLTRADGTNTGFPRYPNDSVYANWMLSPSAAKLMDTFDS
Method: as §1, §2

[6] = molecular target: T2, Aurora-A(h) (Homo sapiens, UniProt O14965); settings: read-out: % Inhibition @1 μM Auroro-A
T2 sequence (O14965 1-403): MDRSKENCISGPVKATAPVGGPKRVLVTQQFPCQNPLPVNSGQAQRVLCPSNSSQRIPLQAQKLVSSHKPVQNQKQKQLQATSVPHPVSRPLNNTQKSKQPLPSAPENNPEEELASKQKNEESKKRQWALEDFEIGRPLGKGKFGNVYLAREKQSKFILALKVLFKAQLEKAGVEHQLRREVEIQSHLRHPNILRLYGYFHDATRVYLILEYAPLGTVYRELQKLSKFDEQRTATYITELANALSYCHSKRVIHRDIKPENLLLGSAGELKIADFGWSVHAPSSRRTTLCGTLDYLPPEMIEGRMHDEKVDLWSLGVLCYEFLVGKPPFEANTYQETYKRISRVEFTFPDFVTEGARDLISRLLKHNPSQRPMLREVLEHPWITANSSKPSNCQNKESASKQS
Method: as §1, §2

Sequence of cSRC(h) (P12931 whole entry): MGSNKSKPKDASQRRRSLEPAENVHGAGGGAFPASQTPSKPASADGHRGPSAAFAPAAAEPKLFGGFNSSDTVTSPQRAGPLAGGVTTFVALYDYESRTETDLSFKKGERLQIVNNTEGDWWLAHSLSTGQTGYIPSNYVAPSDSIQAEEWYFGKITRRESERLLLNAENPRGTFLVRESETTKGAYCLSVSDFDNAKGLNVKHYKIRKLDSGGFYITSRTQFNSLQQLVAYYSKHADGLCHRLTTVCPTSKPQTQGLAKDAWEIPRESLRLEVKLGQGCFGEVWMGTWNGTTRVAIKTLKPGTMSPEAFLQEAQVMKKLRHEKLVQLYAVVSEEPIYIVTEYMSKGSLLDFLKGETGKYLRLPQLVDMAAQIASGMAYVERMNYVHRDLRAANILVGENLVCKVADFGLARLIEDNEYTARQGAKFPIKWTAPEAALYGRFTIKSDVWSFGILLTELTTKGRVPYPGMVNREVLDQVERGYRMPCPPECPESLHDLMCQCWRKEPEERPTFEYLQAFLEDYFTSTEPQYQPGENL
Sequence of Abl(h) (P00519 whole entry): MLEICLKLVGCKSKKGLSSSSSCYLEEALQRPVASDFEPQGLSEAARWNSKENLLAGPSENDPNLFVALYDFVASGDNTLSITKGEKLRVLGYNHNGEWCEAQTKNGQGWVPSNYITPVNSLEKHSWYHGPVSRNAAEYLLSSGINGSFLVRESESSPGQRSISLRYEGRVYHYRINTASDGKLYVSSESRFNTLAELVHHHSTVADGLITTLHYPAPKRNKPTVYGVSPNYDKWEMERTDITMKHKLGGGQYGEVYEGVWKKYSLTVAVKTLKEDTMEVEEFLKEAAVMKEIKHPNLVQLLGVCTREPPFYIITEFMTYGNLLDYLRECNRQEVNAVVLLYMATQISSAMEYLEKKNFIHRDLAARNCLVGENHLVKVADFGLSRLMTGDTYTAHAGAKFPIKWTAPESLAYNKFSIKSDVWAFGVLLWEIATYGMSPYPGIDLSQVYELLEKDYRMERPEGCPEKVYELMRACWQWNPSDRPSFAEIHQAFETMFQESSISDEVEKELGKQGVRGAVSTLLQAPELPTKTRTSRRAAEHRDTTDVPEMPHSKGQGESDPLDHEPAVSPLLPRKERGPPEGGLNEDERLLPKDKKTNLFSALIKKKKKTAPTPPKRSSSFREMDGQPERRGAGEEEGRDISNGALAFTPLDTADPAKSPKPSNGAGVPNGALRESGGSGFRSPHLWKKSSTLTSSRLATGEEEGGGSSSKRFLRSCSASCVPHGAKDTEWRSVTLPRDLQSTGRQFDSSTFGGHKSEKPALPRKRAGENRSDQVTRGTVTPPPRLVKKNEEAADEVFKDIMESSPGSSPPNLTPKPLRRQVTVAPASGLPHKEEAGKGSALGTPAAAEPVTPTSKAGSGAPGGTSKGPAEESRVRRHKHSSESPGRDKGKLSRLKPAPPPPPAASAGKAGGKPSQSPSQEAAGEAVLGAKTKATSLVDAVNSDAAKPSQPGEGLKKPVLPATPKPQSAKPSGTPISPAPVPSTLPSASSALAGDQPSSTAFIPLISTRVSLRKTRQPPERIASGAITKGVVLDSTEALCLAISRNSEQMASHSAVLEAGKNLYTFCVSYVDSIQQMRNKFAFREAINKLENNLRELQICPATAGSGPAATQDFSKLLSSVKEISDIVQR
Sequence of KDR(h) (P35968 20-1356): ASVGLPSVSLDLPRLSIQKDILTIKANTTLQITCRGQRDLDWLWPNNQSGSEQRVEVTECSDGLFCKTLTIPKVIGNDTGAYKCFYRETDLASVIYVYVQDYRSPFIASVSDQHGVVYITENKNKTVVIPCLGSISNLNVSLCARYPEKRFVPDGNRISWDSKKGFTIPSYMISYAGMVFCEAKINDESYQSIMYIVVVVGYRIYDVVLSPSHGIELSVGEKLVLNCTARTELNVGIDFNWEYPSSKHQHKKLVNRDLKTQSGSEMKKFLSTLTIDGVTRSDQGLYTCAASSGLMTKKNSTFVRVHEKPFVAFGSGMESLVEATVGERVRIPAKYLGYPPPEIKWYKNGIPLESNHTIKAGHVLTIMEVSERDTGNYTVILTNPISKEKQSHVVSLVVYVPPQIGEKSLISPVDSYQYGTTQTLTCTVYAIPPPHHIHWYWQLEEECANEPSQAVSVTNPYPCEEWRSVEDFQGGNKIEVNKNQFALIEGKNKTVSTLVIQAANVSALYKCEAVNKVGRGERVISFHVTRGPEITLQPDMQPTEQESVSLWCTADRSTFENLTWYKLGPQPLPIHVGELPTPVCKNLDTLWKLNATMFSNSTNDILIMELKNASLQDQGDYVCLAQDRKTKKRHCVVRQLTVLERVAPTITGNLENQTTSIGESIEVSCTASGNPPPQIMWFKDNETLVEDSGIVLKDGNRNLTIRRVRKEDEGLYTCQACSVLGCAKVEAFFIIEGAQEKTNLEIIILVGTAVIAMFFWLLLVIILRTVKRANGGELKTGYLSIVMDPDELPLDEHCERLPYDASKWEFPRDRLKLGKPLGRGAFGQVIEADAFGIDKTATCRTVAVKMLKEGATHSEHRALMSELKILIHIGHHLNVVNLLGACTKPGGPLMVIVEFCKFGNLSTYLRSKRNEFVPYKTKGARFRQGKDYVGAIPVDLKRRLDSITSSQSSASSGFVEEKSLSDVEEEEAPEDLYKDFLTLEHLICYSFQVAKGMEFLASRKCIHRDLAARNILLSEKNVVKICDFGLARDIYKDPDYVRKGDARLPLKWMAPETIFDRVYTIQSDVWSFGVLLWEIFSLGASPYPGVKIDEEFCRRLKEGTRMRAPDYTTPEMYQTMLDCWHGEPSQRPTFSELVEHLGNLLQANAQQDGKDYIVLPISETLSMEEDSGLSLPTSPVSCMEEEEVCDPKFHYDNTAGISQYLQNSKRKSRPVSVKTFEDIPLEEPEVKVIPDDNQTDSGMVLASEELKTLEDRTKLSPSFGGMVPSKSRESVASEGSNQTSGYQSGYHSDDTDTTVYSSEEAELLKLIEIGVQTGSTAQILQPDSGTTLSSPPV

| SMILES | inhibition at 1 µM [1] [%] | inhibition at 1 µM [2] [%] | inhibition at 1 µM [3] [%] | inhibition at 1 µM [4] [%] | inhibition at 1 µM [5] [%] | inhibition at 1 µM [6] [%] |
| --- | --- | --- | --- | --- | --- | --- |
| Cc1cc2c(F)c(Oc3nc(Nc4cc(C5CC5)[nH]n4)cc(N4CCOCC4)n3)ccc2[nH]1 [Compound 13] | 96 | 112 | 100 | 101 | 100 | 100 |
| Cc1cc2c(F)c(Oc3nc(Nc4cc(C5CC5)[nH]n4)cc(N4CC(O)C4)n3)ccc2[nH]1 [Compound 15] | 91 | 108 | 99 | 100 | 101 | 101 |
| COC1CCN(c2cc(Nc3cc(C4CC4)[nH]n3)nc(Oc3ccc4[nH]c(C)cc4c3F)n2)C1 (stereo not drawn) [Compound 16] | 92 | 103 | 100 | 98 | 101 | 101 |
| Cc1cc2c(F)c(Oc3nc(Nc4cc(C5CC5)[nH]n4)cc(N4CCC(N(C)C)C4)n3)ccc2[nH]1 (stereo not drawn) [Compound 17] | 93 | 108 | 98 | 100 | 98 | 100 |
| CC(=O)N1CCN(c2cc(Nc3cc(C4CC4)[nH]n3)nc(Oc3ccc4[nH]c(C)cc4c3F)n2)CC1 [Compound 18] | 93 | 107 | 99 | 100 | 97 | 100 |
| Cc1cc2c(F)c(Oc3nc(Nc4cc(C5CC5)[nH]n4)cc(N4CCNC(=O)C4)n3)ccc2[nH]1 [Compound 19] | 93 | 108 | 99 | 99 | 100 | 100 |
| Cc1cc2c(F)c(Oc3nc(Nc4cc(C5CC5)[nH]n4)cc(N4C[C@@H](C)N[C@@H](C)C4)n3)ccc2[nH]1 [Compound 20] | 93 | 107 | 99 | 100 | 100 | 99 |
| Cc1cc2c(F)c(Oc3nc(Nc4cc(C5CC5)[nH]n4)cc(N4CCC(O)CC4)n3)ccc2[nH]1 [Compound 21] | 87 | 107 | 98 | 101 | 100 | 100 |
| Cc1cc2c(F)c(Oc3nc(Nc4cc(C5CC5)[nH]n4)cc(N4CCC(F)CC4)n3)ccc2[nH]1 [Compound 22] | 92 | 108 | 100 | 100 | 101 | 101 |
| Cc1cc2c(F)c(Oc3nc(Nc4cc(C5CC5)[nH]n4)cc(N4CCN(S(C)(=O)=O)CC4)n3)ccc2[nH]1 [Compound 23] | 93 | 108 | 100 | 100 | 100 | 101 |
| Cc1cc2c(F)c(Oc3nc(Nc4cc(C5CC5)[nH]n4)cc(N4CCN(c5ccccn5)CC4)n3)ccc2[nH]1 [Compound 25] | 93 | 108 | 100 | 100 | 101 | 101 |
| Cc1cc2c(F)c(Oc3nc(Nc4cc(C5CC5)[nH]n4)cc(N4CCN(c5cccnc5)CC4)n3)ccc2[nH]1 [Compound 26] | 93 | 109 | 100 | 100 | 101 | 101 |
| Cc1cc2c(F)c(Oc3nc(Nc4cc(C5CC5)[nH]n4)cc(N4CCN(c5ccncc5)CC4)n3)ccc2[nH]1 [Compound 27] | 92 | 108 | 99 | 100 | 101 | 101 |

Results, then the molecule that gave them:

| inhibition at 1 µM [1] [%] | inhibition at 1 µM [2] [%] | inhibition at 1 µM [3] [%] | inhibition at 1 µM [4] [%] | inhibition at 1 µM [5] [%] | inhibition at 1 µM [6] [%] | SMILES |
| --- | --- | --- | --- | --- | --- | --- |
| 89 | 108 | 96 | 100 | 101 | 101 | COCCN1CCN(c2cc(Nc3cc(C4CC4)[nH]n3)nc(Oc3ccc4[nH]c(C)cc4c3F)n2)CC1 [Compound 28] |
| 94 | 110 | 99 | 100 | 101 | 100 | Cc1cc2c(F)c(Oc3nc(Nc4cc(C5CC5)[nH]n4)cc(N4CCOC(CN(C)C)C4)n3)ccc2[nH]1 (stereo not drawn) [Compound 30] |
| 91 | 115 | 104 | 101 | 102 | 101 | CCN1CCN(c2cc(Nc3cc(C4CC4)[nH]n3)nc(Oc3ccc4[nH]c(C)cc4c3F)n2)CC1 [Compound 31] |
| 95 | 108 | 98 | 98 | 101 | 80 | Cc1cc2c(F)c(Oc3nc(Nc4cc(C5CC5)[nH]n4)cc(N4CCN(CC(F)(F)F)CC4)n3)ccc2[nH]1 [Compound 38] |
| 95 | 110 | 97 | 98 | 101 | 98 | Cc1cc2c(F)c(Oc3nc(Nc4cc(C5CC5)[nH]n4)cc(N4CCOC(CN)C4)n3)ccc2[nH]1 (stereo not drawn) [Compound 39] |
| 94 | 108 | 97 | 99 | 101 | 87 | CCC1CN(c2cc(Nc3cc(C4CC4)[nH]n3)nc(Oc3ccc4[nH]c(C)cc4c3F)n2)CCN1 (stereo not drawn) [Compound 41] |
| 96 | 110 | 101 | 100 | 102 | 93 | Cc1cc2c(F)c(Oc3nc(Nc4cc(C5CC5)[nH]n4)cc(N4CCN(CCN(C)C)CC4)n3)ccc2[nH]1 [Compound 42] |
| 95 | 111 | 101 | 99 | 102 | 87 | Cc1cc2c(F)c(Oc3nc(Nc4cc(C5CC5)[nH]n4)cc(N4CCNC(CO)C4)n3)ccc2[nH]1 (stereo not drawn) [Compound 43] |

From US10245261B2, “Substituted indol-5-ol derivatives and their therapeutic applications” (NantBioScience, Inc., priority 2013, dated 2019)
